Experiment: photoluminescence quantum yield (fraction); solvent given as SMILES

With c1cnc2c(c1)c1nc(-c3ccc(-c4nc5c6cccnc6c6ncccc6c5[nH]4)cc3)[nH]c1c1cccnc12 the photoluminescence quantum yield (in CS(C)=O) was 0.84.

Compound CCCCCCOc1ccc(/C=C/c2ccc(N(c3ccc(/C=C/c4ccc(OCCCCCC)cc4)cc3)c3ccc(-c4nc5ccccc5nc4-c4ccc(N(c5ccc(/C=C/c6ccc(OCCCCCC)cc6)cc5)c5ccc(/C=C/c6ccc(OCCCCCC)cc6)cc5)cc4)cc3)cc2)cc1 has a photoluminescence quantum yield (in C1CCOC1) of 0.66.

For COc1ccc(O[B-]2(Oc3ccc(OC)cc3)n3c(C)cc(C)c3C(c3ccc(I)cc3)=C3C(C)=CC(C)=[N+]32)cc1, the photoluminescence quantum yield (in ClC(Cl)Cl) was 0.004.

Compound COCCOCCOCCOc1ccc(/C=C/C2=[N+]3C(=C(c4cc(OC)cc(OC)c4)c4c(C)c(I)c(/C=C/c5ccc(OCCOCCOCCOC)cc5)n4[B-]3(F)F)C(C)=C2I)cc1 has a photoluminescence quantum yield (in C1CCOC1) of 0.19, a photoluminescence quantum yield (in CS(C)=O) of 0.17 and a photoluminescence quantum yield (in ClCCl) of 0.24.

For Cc1ccc(/C=C/c2ccccc2-[n+]2cc([O-])on2)cc1, the photoluminescence quantum yield (in C1CCCCC1) was 0.0007 and the photoluminescence quantum yield (in CC#N) was 0.017.

For CN1/C(=C/C=C(/C=C/C2=[N+](C)c3ccccc3C2(C)C)c2cccc(C(F)(F)F)c2)C(C)(C)c2ccccc21, the photoluminescence quantum yield (in CCO) was 0.11 and the photoluminescence quantum yield (in CS(C)=O) was 0.16.

For C(=C\c1ncnc2ccccc12)/c1ccc(N2CCCCC2)cc1, the photoluminescence quantum yield (in ClCCl) was 0.12.

C[Si]1(C)c2cc(-c3cccs3)ccc2C=Cc2ccc(-c3cccs3)cc21 gave a photoluminescence quantum yield (in ClCCl) of 0.77.

With Fc1cc(-c2ccc(-c3nc4cc(Br)ccc4[nH]3)cc2)ccc1-c1ccc(-c2nc3cc(Br)ccc3[nH]2)cc1 the photoluminescence quantum yield (in CN(C)C=O) was 0.48.

c1ccc(-c2nc(-c3ccccc3)nc(-c3ccc(-c4ccc5c(c4)C4(c6ccccc6-c6ccccc64)c4cc(-c6ccc(-c7nc(-c8ccccc8)nc(-c8ccccc8)n7)cc6)ccc4N5c4ccccc4)cc3)n2)cc1 gave a photoluminescence quantum yield (in c1cc(-c2cccc(-n3c4ccccc4c4ccccc43)c2)cc(-n2c3ccccc3c3ccccc32)c1) of 0.94.

CCc1c(C)[nH]c(C2=[N+]3C(=Cc4c(C)c(CC)c(C)n4[B-]3(F)F)c3ccccc32)c1C showed a photoluminescence quantum yield (in C1CCOC1) of 0.09, a photoluminescence quantum yield (in CC#N) of 0.03 and a photoluminescence quantum yield (in CCCCCC) of 0.86. For the same compound, the photoluminescence quantum yield (in CO) was 0.04, the photoluminescence quantum yield (in Cc1ccccc1) was 0.75 and the photoluminescence quantum yield (in ClCCl) was 0.73.

CCC1=C(C)C2=C(c3c4ccccc4c(-c4ccccc4)c4ccccc34)c3c(C)c(CC)c(C)n3[B-](F)(F)[N+]2=C1C showed a photoluminescence quantum yield (in CC#N) of 0.422, a photoluminescence quantum yield (in CCCCCC) of 0.903 and a photoluminescence quantum yield (in CCO) of 0.804. It also gave a photoluminescence quantum yield (in CN(C)C=O) of 0.648, a photoluminescence quantum yield (in Cc1ccccc1) of 0.858 and a photoluminescence quantum yield (in ClCCl) of 0.833.

For CN1/C(=C/C=C(/C=C/c2sc3ccccc3[n+]2C)c2cc(F)cc(F)c2)Sc2ccccc21, the photoluminescence quantum yield (in CCO) was 0.1, the photoluminescence quantum yield (in CO) was 0.08 and the photoluminescence quantum yield (in CS(C)=O) was 0.18.

Fc1ccc(N(c2ccc(F)cc2)c2ccc3c4cccc5c(N(c6ccc(F)cc6)c6ccc(F)cc6)ccc(c6cccc2c63)c54)cc1 showed a photoluminescence quantum yield (in ClCCl) of 0.64.

Work on COc1ccc(OC)c(C2=C3C=CC(=[N+](C)C)C=C3[Si](C)(C)c3cc(N(C)C)ccc32)c1 yielded a photoluminescence quantum yield (in O) of 0.025.

With COc1c2ccccc2c(OC)c2c1c1ccc(F)cc1n2C the photoluminescence quantum yield (in C1CCCCC1) was 0.36, the photoluminescence quantum yield (in CC#N) was 0.27 and the photoluminescence quantum yield (in CO) was 0.34. For the same compound, the photoluminescence quantum yield (in ClCCl) was 0.45.

For N#Cc1nn(-c2cc(F)cc(F)c2)nc1N1CCCC1, the photoluminescence quantum yield (in CC#N) was 0.837.

CCCN1c2ccccc2Sc2cc(/C=C\c3cc(=O)oc4cc(C)ccc34)ccc21 gave a photoluminescence quantum yield (in ClC(Cl)Cl) of 0.27.

Work on COc1ccc2c(c1)CCc1c(-c3ccccc3)c3n(c1-2)[B-](F)(F)[N+]1=C2C(=C(c4ccccc4)C1=N3)CCc1ccccc12 yielded a photoluminescence quantum yield (in ClC(Cl)Cl) of 0.32.

Compound CC1(C)Nc2cc3nc4cc(Cl)c(Cl)cc4nc3cc2N1 has a photoluminescence quantum yield (in CCO) of 0.42.

With Cc1cc(C)c2c(c1)nc1c(=O)n(C)c(=O)nc-1n2C the photoluminescence quantum yield (in CC#N) was 0.18.

In the case of CNC1=C2C=CC=[N+]2[B-](F)(F)n2cccc21, the photoluminescence quantum yield (in C1CCCCC1) is reported as 0.7, the photoluminescence quantum yield (in CC(C)=O) is reported as 0.16 and the photoluminescence quantum yield (in CCO) is reported as 0.16. It also gave a photoluminescence quantum yield (in CCOC(C)=O) of 0.42, a photoluminescence quantum yield (in CO) of 0.1 and a photoluminescence quantum yield (in OCC(F)(F)F) of 0.23.
